Tested on: P. falciparum 3D7 parasites
Test: Metabolomic profiling of compound-treated parasites (LC/MS);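 for Metabolite data: 3-Phosphoglycerate: Log2 fold change in abundance versus untreated parasite controls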;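 for Metabolite data: Myo-Inositol: Log2 fold change in abundance versus untreated parasite controls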;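 for Metabolite data: N-Carbamoyl-L-Aspartate: Log2 fold change in abundance versus untreated parasite controls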;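 for Metabolite data: Nicotinate: Log2 fold change in abundance versus untreated parasite controls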
Assay type: cell-based
Parameters: Metabolite data: dTMP / Metabolite data: GMP / Metabolite data: S-Adenosyl-L-Homocysteine / Metabolite data: 1_3-Bisphosphoglyceric acid: scale not given here
Summary of the method: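 Magnetically purified trophozoites (1×10^8 parasites/mL) recovered 1 h in RPMI 1640, incubated a further 2.5 h, quenched in 90% methanol with labeled aspartate. Extracts analysed by reverse-phase C18 LC with negative-mode Orbitrap MS; peak areas normalized to internal standards, blank-subtracted and averaged by condition.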

Compound: C[C@H]1Cc2c([nH]c3cc(Cl)c(F)cc23)[C@@]2(N1)C(=O)Nc1ccc(Cl)cc12 [NITD609]
- Metabolite data: 1_3-Bisphosphoglyceric acid: 0
- Metabolite data: 2_3-Diphosphoglyceric acid: -2.22
- Metabolite data: 3-Phosphoglycerate: 0.01
- Metabolite data: 4-Aminobutyrate: -0.54
- Metabolite data: 4-Phosphopantothenate: -0.15
- Metabolite data: 4-phosphopantetheine: 0
- Metabolite data: 5-aminopentanoic acid: 0
- Metabolite data: 5-phosphoribosyl-1-pyrophosphate: 0
- Metabolite data: 6-Phospho-D-Gluconate: -0.28
- Metabolite data: ADP-D-Glucose: 0.02
- Metabolite data: Acetyl-CoA: -0.54
- Metabolite data: Acetyllysine: -1.93
- Metabolite data: Aconitate: 0.62
- Metabolite data: CDP: -0.29
- Metabolite data: CDP-Ethanolamine: -0.28
- Metabolite data: CDP-choline: 0
- Metabolite data: CMP: 1.24
- Metabolite data: CTP: -1.27
- Metabolite data: Citrate/Isocitrate: 0.19
- Metabolite data: Cyclic-AMP: -1.16
- Metabolite data: Dihydroorotate: -2.01
- Metabolite data: FAD: -1.31
- Metabolite data: FMN: -1
- Metabolite data: Fructose-1,6-Bisphosphate: -1.13
- Metabolite data: Fumarate: -0.06
- Metabolite data: GDP: -2.58
- Metabolite data: GMP: -2.42
- Metabolite data: GTP: -1.11
- Metabolite data: Glucose-1/6-Phosphate: -0.9
- Metabolite data: Glutathione Disulfide: -0.38
- Metabolite data: Hexose: 0
- Metabolite data: Hydroxyisocaproic acid: 0
- Metabolite data: Indole: 0.17
- Metabolite data: Ketoleucine: 0
- Metabolite data: L-arginino-succinate: 0
- Metabolite data: Lactate: -1.31
- Metabolite data: Malate: -0.06
- Metabolite data: Myo-Inositol: -3.27
- Metabolite data: N-Acetyl-Glutamate: -0.27
- Metabolite data: N-Acetyl-L-Alanine: -1.42
- Metabolite data: N-Acetyl-L-Ornithine: -1.27
- Metabolite data: N-Carbamoyl-L-Aspartate: -4.57
- Metabolite data: NAD+: -0.4
- Metabolite data: NADH: 0.03
- Metabolite data: NADP+: -0.12
- Metabolite data: NADPH: 0.35
- Metabolite data: Nicotinate: 0.78
- Metabolite data: Octulose 8/1-Phosphate: -1.92
- Metabolite data: Orotate: 0.91
- Metabolite data: PD: 0
- Metabolite data: PE: 0
- Metabolite data: PEEK: 0
- Metabolite data: Phenol Red: 0
- Metabolite data: Pyroglutamic acid: -0.06
- Metabolite data: S-Adenosyl-L-Homocysteine: -1.64
- Metabolite data: S-methyl-5'-thioadenosine: -0.53
- Metabolite data: SD: 0
- Metabolite data: Sedoheptulose Bisphosphate: -1.34
- Metabolite data: UDP: -0.96
- Metabolite data: UDP-D-Glucose: -0.2
- Metabolite data: UDP-D-Glucuronate: -0.36
- Metabolite data: UDP-N-Acetyl-Glucosamine: 0.03
- Metabolite data: UMP: -0.38
- Metabolite data: UTP: -2.05
- Metabolite data: a-ketoglutarate: 0.5
- Metabolite data: acetyl-aspartate: 0
- Metabolite data: arginine: 0
- Metabolite data: asparagine: 0
- Metabolite data: aspartate: 0
- Metabolite data: biotin: 0
- Metabolite data: chlorpropamide: 0
- Metabolite data: coenzyme A: 0
- Metabolite data: dAMP: 2.56
- Metabolite data: dATP: -0.71
- Metabolite data: dCDP: 1.68
- Metabolite data: dCMP: 1.5
- Metabolite data: dCTP: 0.45
- Metabolite data: dGDP/ADP: 0
- Metabolite data: dGMP/AMP: -1.14
- Metabolite data: dGTP/ATP: 0
- Metabolite data: dTDP: 2.45
- Metabolite data: dTMP: 3.96
- Metabolite data: dTTP: 1.4
- Metabolite data: folate: 0
- Metabolite data: glucono-lactone: 0
- Metabolite data: glutamate: 0
- Metabolite data: glutamine: 0
- Metabolite data: glutathione: 0
- Metabolite data: histidine: 0
- Metabolite data: hydroxyproline/Aminolevulinate: 0
- Metabolite data: isoleucine: 0
- Metabolite data: leucine: 0
- Metabolite data: maleic acid: 0
- Metabolite data: methionine: 0
- Metabolite data: nicotinamide mononucleotide: 0
- Metabolite data: orotidine-5'-phosphate: 0

Compound: CC1(C)N=C(N)N=C(N)N1OCCCOc1cc(Cl)c(Cl)cc1Cl [WR99210]
- Metabolite data: 1_3-Bisphosphoglyceric acid: 0
- Metabolite data: 2_3-Diphosphoglyceric acid: 0.15
- Metabolite data: 3-Phosphoglycerate: 0
- Metabolite data: 4-Aminobutyrate: 0.89
- Metabolite data: 4-Phosphopantothenate: 0.06
- Metabolite data: 4-phosphopantetheine: 0
- Metabolite data: 5-aminopentanoic acid: 0
- Metabolite data: 5-phosphoribosyl-1-pyrophosphate: 0
- Metabolite data: 6-Phospho-D-Gluconate: 0.03
- Metabolite data: ADP-D-Glucose: -0.24
- Metabolite data: Acetyl-CoA: 0.03
- Metabolite data: Acetyllysine: 0.3
- Metabolite data: Aconitate: -0.02
- Metabolite data: CDP: 0.18
- Metabolite data: CDP-Ethanolamine: 0.69
- Metabolite data: CDP-choline: 0
- Metabolite data: CMP: -0.07
- Metabolite data: CTP: -0.11
- Metabolite data: Citrate/Isocitrate: 0.01
- Metabolite data: Cyclic-AMP: 0
- Metabolite data: Dihydroorotate: 0.21
- Metabolite data: FAD: 0.03
- Metabolite data: FMN: -0.26
- Metabolite data: Fructose-1,6-Bisphosphate: 0
- Metabolite data: Fumarate: 0.11
- Metabolite data: GDP: 0.23
- Metabolite data: GMP: 0.07
- Metabolite data: GTP: -0.36
- Metabolite data: Glucose-1/6-Phosphate: -0.02
- Metabolite data: Glutathione Disulfide: 0.14
- Metabolite data: Hexose: 0
- Metabolite data: Hydroxyisocaproic acid: 0
- Metabolite data: Indole: 0.05
- Metabolite data: Ketoleucine: 0
- Metabolite data: L-arginino-succinate: 0
- Metabolite data: Lactate: 0.42
- Metabolite data: Malate: 0.06
- Metabolite data: Myo-Inositol: 0.64
- Metabolite data: N-Acetyl-Glutamate: 0.09
- Metabolite data: N-Acetyl-L-Alanine: 0.02
- Metabolite data: N-Acetyl-L-Ornithine: 0.2
- Metabolite data: N-Carbamoyl-L-Aspartate: 0.03
- Metabolite data: NAD+: 0.17
- Metabolite data: NADH: 3.14
- Metabolite data: NADP+: 0.03
- Metabolite data: NADPH: 0.5
- Metabolite data: Nicotinate: 0.23
- Metabolite data: Octulose 8/1-Phosphate: 0.08
- Metabolite data: Orotate: 0.09
- Metabolite data: PD: 0
- Metabolite data: PE: 0
- Metabolite data: PEEK: 0
- Metabolite data: Phenol Red: 0
- Metabolite data: Pyroglutamic acid: 0.03
- Metabolite data: S-Adenosyl-L-Homocysteine: 0
- Metabolite data: S-methyl-5'-thioadenosine: 0.14
- Metabolite data: SD: 0
- Metabolite data: Sedoheptulose Bisphosphate: 0.08
- Metabolite data: UDP: 0.22
- Metabolite data: UDP-D-Glucose: 0.05
- Metabolite data: UDP-D-Glucuronate: 0.01
- Metabolite data: UDP-N-Acetyl-Glucosamine: 0.06
- Metabolite data: UMP: 0
- Metabolite data: UTP: -0.42
- Metabolite data: a-ketoglutarate: 0.08
- Metabolite data: acetyl-aspartate: 0
- Metabolite data: arginine: 0
- Metabolite data: asparagine: 0
- Metabolite data: aspartate: 0
- Metabolite data: biotin: 0
- Metabolite data: chlorpropamide: 0
- Metabolite data: coenzyme A: 0
- Metabolite data: dAMP: -0.3
- Metabolite data: dATP: -0.89
- Metabolite data: dCDP: 0.46
- Metabolite data: dCMP: 0.32
- Metabolite data: dCTP: 0.42
- Metabolite data: dGDP/ADP: 0
- Metabolite data: dGMP/AMP: 0
- Metabolite data: dGTP/ATP: 0
- Metabolite data: dTDP: 0.16
- Metabolite data: dTMP: -0.05
- Metabolite data: dTTP: -0.28
- Metabolite data: folate: 0
- Metabolite data: glucono-lactone: 0
- Metabolite data: glutamate: 0
- Metabolite data: glutamine: 0
- Metabolite data: glutathione: 0
- Metabolite data: histidine: 0
- Metabolite data: hydroxyproline/Aminolevulinate: 0
- Metabolite data: isoleucine: 0
- Metabolite data: leucine: 0
- Metabolite data: maleic acid: 0
- Metabolite data: methionine: 0
- Metabolite data: nicotinamide mononucleotide: 0
- Metabolite data: orotidine-5'-phosphate: 0

From article PMC8878317, “Chemogenomics identifies acetyl-coenzyme A synthetase as a target for malaria treatment and prevention” (Cell Chemical Biology, 2022)
